Test results from patent US20260022142A1, “MACROCYCLIC IMMUNOMODULATORS” (Bristol-Myers Squibb Company, priority 2022, published 2026).
Bridge positions count the residues as written; N and C are the ends. Square brackets hold non-standard residues; d marks the D form. Peptide text beside a SMILES is read from it. * marks the point of attachment. Bip = N[C@@H](Cc1ccc(-c2ccccc2)cc1)C(=O)O; Phe(3-Me) = Cc1cccc(C[C@H](N)C(=O)O)c1; Cha = N[C@@H](CC1CCCCC1)C(=O)O; Cit = NC(=O)NCCC[C@H](N)C(=O)O; Dap(Me) = CNC[C@H](N)C(=O)O; Carboxymethyl = O=C(O)C*; NMeA = CN[C@@H](C)C(=O)O; Orn = NCCC[C@H](N)C(=O)O; Aun = NCCCCCCCCCCC(=O)O; Dab = NCC[C@H](N)C(=O)O; Dap = NC[C@H](N)C(=O)O; Aib = CC(C)(N)C(=O)O

Target: T1, PD-1/PD-L1 interaction (PE-labeled human PD-L1-Ig binding to Jurkat cell line over-expressing human PD-1) (Homo sapiens, UniProt Q15116)
T1 construct: expressed in transfected cells; host or cells: Jurkat
T1 sequence (Q15116 25-288): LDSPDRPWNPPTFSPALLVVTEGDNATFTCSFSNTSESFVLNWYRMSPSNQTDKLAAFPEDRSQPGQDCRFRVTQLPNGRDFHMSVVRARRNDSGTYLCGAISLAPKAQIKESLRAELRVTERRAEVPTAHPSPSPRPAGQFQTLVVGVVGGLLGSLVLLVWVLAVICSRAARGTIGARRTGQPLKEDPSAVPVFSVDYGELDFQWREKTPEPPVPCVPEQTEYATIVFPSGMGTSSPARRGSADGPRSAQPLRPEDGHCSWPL
Assay: Jurkat-PD-1 Cell Binding High-Content Screening Assay (CBA)
Assay type: cell-based
Conditions: Jurkat cell line over-expressing human PD-1; PE-labeled PD-L1-Ig 20 nM final; read-out: Jurkat hPD1-PDL1 IC50
In short: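 First, compound is added to PD-1-expressing Jurkat cells in serum-containing DMEM and left 2 h at 37° C. Next, PE-conjugated PD-L1-Ig is introduced at 20 nM final concentration for 1 hour. Finally, cells are fixed in 4% paraformaldehyde with Hoechst 33342, washed and imaged.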

SMILES	IC50
Cc1cccc(C[C@@H]2NC(=O)[C@H](CC(=O)O)NC(=O)[C@H](Cc3ccc(OCC(=O)O)cc3)NC(=O)[C@H](CN)NC(=O)CSC[C@@H](C(=O)N(C)[C@@H](C)C(=O)N[C@@H](CCC(=O)O)C(=O)NCCCCCCCCCCC(=O)O)NC(=O)[C@H]([C@@H](C)O)NC(=O)[C@H](C(C)C)NC(=O)[C@H](CC3CCCCC3)NC(=O)[C@H](CCN)NC(=O)[C@@H](CC(C)C)NC(=O)[C@H](CCCN)NC(=O)[C@H](CCCNC(N)=O)NC(=O)[C@H](Cc3ccc(-c4ccccc4)cc3)NC(=O)[C@H](C(C)C)NC2=O)c1 [Compound 2783] ({CH2CO}-[Dap]Y(Carboxymethyl)D[Phe(3-Me)]V[Bip][Cit][Orn][dL][Dab][Cha]VTC[NMeA]E[Aun]-OH; thioether N-14)	368 nM
Cc1cccc(C[C@@H]2NC(=O)[C@H](CC(=O)O)NC(=O)[C@H](Cc3ccc(OCC(=O)O)cc3)NC(=O)[C@H](CN)NC(=O)CSC[C@@H](C(=O)NC(C)(C)C(=O)N[C@@H](CCC(=O)O)C(=O)NCCCCCCCCCCC(=O)O)NC(=O)[C@H]([C@@H](C)O)NC(=O)[C@H](C(C)C)NC(=O)[C@H](CC3CCCCC3)NC(=O)[C@H](CCN)NC(=O)[C@@H](CC(C)C)NC(=O)[C@H](CCCN)NC(=O)[C@H](CCCNC(N)=O)NC(=O)[C@H](Cc3ccc(-c4ccccc4)cc3)NC(=O)[C@H](C(C)C)NC2=O)c1 [Compound 2784] ({CH2CO}-[Dap]Y(Carboxymethyl)D[Phe(3-Me)]V[Bip][Cit][Orn][dL][Dab][Cha]VTC[Aib]E[Aun]-OH; thioether N-14)	21.8 nM
CC(C)C[C@H]1NC(=O)[C@H](CCCN)NC(=O)[C@H](C(C)C)NC(=O)[C@H](Cc2ccc(-c3ccccc3)cc2)NC(=O)[C@H](C(C)C)NC(=O)[C@H](Cc2c[nH]c3ccccc23)NC(=O)[C@H](CC(=O)O)NC(=O)[C@H](Cc2ccc(OCC(=O)O)cc2)NC(=O)[C@H](Cc2c[nH]cn2)NC(=O)CSC[C@@H](C(=O)N[C@H](C)C(=O)N[C@@H](CCC(=O)O)C(=O)NCCCCCCCCCCC(=O)O)NC(=O)[C@H]([C@@H](C)O)NC(=O)[C@H](C(C)C)NC(=O)[C@H](CC2CCCCC2)NC(=O)[C@H](CCN)NC1=O [Compound 2785] ({CH2CO}-HY(Carboxymethyl)DWV[Bip]V[Orn][dL][Dab][Cha]VTC[dA]E[Aun]-OH; thioether N-14)	16.1 nM
CNC[C@H](NC(=O)[C@@H]1CSCC(=O)N[C@@H](CN)C(=O)N[C@@H](Cc2ccc(OCC(=O)O)cc2)C(=O)N[C@@H](CC(=O)O)C(=O)N[C@@H](Cc2cccc(C)c2)C(=O)N[C@@H](C(C)C)C(=O)N[C@@H](Cc2ccc(-c3ccccc3)cc2)C(=O)N[C@@H](CCCNC(N)=O)C(=O)N[C@@H](CCCN)C(=O)N[C@H](CC(C)C)C(=O)N[C@@H](CCN)C(=O)N[C@@H](CC2CCCCC2)C(=O)N[C@@H](C(C)C)C(=O)N[C@@H]([C@@H](C)O)C(=O)N1)C(=O)NCCCCCCCCCCC(=O)O [Compound 2787] ({CH2CO}-[Dap]Y(Carboxymethyl)D[Phe(3-Me)]V[Bip][Cit][Orn][dL][Dab][Cha]VTC[Dap(Me)][Aun]-OH; thioether N-14)	28.3 nM
CC(C)C[C@H]1NC(=O)[C@H](CCCN)NC(=O)[C@H](C(C)C)NC(=O)[C@H](Cc2ccc(-c3ccccc3)cc2)NC(=O)[C@H](C(C)C)NC(=O)[C@H](Cc2c[nH]c3ccccc23)NC(=O)[C@H](CC(=O)O)NC(=O)[C@H](Cc2ccc(OCC(=O)O)cc2)NC(=O)[C@H](CN)NC(=O)CSC[C@@H](C(=O)N[C@@H](CCN)C(=O)NCCCCCCCCCCC(=O)O)NC(=O)[C@H](CCC(=O)O)NC(=O)[C@H](C(C)C)NC(=O)[C@H](CC2CCCCC2)NC(=O)[C@H](Cc2c[nH]cn2)NC1=O [Compound 2788] ({CH2CO}-[Dap]Y(Carboxymethyl)DWV[Bip]V[Orn][dL]H[Cha]VEC[Dab][Aun]-OH; thioether N-14)	22.3 nM
Cc1cccc(C[C@@H]2NC(=O)[C@H](CC(=O)O)NC(=O)[C@H](Cc3ccc(O)cc3)NC(=O)[C@H](CC(N)=O)NC(=O)CSC[C@@H](C(=O)N[C@@H](CCN)C(=O)NCCCCCCCCCCC(=O)O)NC(=O)[C@H](CCC(N)=O)NC(=O)[C@H](C(C)C)NC(=O)[C@H](CC(C)C)NC(=O)[C@H](CCN)NC(=O)[C@@H](CC(C)C)NC(=O)[C@H](CCCN)NC(=O)[C@H](CCCNC(N)=O)NC(=O)[C@H](Cc3ccc(-c4ccccc4)cc3)NC(=O)[C@H](C(C)C)NC2=O)c1 [Compound 2789] ({CH2CO}-NYD[Phe(3-Me)]V[Bip][Cit][Orn][dL][Dab]LVQC[Dab][Aun]-OH; thioether N-14)	23.8 nM
Cc1cccc(C[C@@H]2NC(=O)[C@H](CC(=O)O)NC(=O)[C@H](Cc3ccc(O)cc3)NC(=O)[C@H](CC(N)=O)NC(=O)CSC[C@@H](C(=O)N[C@@H](CCCN)C(=O)NCCCCCCCCCCC(=O)O)NC(=O)[C@H](CCC(N)=O)NC(=O)[C@H](C(C)C)NC(=O)[C@H](CC(C)C)NC(=O)[C@H](CCN)NC(=O)[C@@H](CC(C)C)NC(=O)[C@H](CCCN)NC(=O)[C@H](CCCNC(N)=O)NC(=O)[C@H](Cc3ccc(-c4ccccc4)cc3)NC(=O)[C@H](C(C)C)NC2=O)c1 [Compound 2790] ({CH2CO}-NYD[Phe(3-Me)]V[Bip][Cit][Orn][dL][Dab]LVQC[Orn][Aun]-OH; thioether N-14)	71.1 nM
Cc1cccc(C[C@@H]2NC(=O)[C@H](CC(=O)O)NC(=O)[C@H](Cc3ccc(O)cc3)NC(=O)[C@H](CC(N)=O)NC(=O)CSC[C@@H](C(=O)N[C@@H](CCN)C(=O)NCCCCCCCCCCC(=O)O)NC(=O)[C@@H](CCC(N)=O)NC(=O)[C@H](C(C)C)NC(=O)[C@H](CC(C)C)NC(=O)[C@H](CCN)NC(=O)[C@@H](CC(C)C)NC(=O)[C@H](CCCN)NC(=O)[C@H](CCCNC(N)=O)NC(=O)[C@H](Cc3ccc(-c4ccccc4)cc3)NC(=O)[C@H](C(C)C)NC2=O)c1 [Compound 2791] ({CH2CO}-NYD[Phe(3-Me)]V[Bip][Cit][Orn][dL][Dab]LV[dQ]C[Dab][Aun]-OH; thioether N-14)	36.7 nM
Cc1cccc(C[C@@H]2NC(=O)[C@H](CC(=O)O)NC(=O)[C@H](Cc3ccc(O)cc3)NC(=O)[C@H](CC(N)=O)NC(=O)CSC[C@@H](C(=O)N[C@@H](CCCN)C(=O)NCCCCCCCCCCC(=O)O)NC(=O)[C@@H](CCC(N)=O)NC(=O)[C@H](C(C)C)NC(=O)[C@H](CC(C)C)NC(=O)[C@H](CCN)NC(=O)[C@@H](CC(C)C)NC(=O)[C@H](CCCN)NC(=O)[C@H](CCCNC(N)=O)NC(=O)[C@H](Cc3ccc(-c4ccccc4)cc3)NC(=O)[C@H](C(C)C)NC2=O)c1 [Compound 2792] ({CH2CO}-NYD[Phe(3-Me)]V[Bip][Cit][Orn][dL][Dab]LV[dQ]C[Orn][Aun]-OH; thioether N-14)	75.7 nM
CC(C)C[C@H]1NC(=O)[C@H](CCCN)NC(=O)[C@H](C(C)C)NC(=O)[C@H](Cc2ccc(-c3ccccc3)cc2)NC(=O)[C@H](C(C)C)NC(=O)[C@H](Cc2c[nH]c3ccccc23)NC(=O)[C@H](CC(=O)O)NC(=O)[C@H](Cc2ccc(OCC(=O)O)cc2)NC(=O)[C@H](CN)NC(=O)CSC[C@@H](C(=O)N[C@@H](CCN)C(=O)NCCCCCCCCCCC(=O)O)NC(=O)[C@H](CCC(N)=O)NC(=O)[C@H](C(C)C)NC(=O)[C@H](CC2CCCCC2)NC(=O)[C@H](Cc2c[nH]cn2)NC1=O [Compound 2793] ({CH2CO}-[Dap]Y(Carboxymethyl)DWV[Bip]V[Orn][dL]H[Cha]VQC[Dab][Aun]-OH; thioether N-14)	21.6 nM
CC(C)C[C@H]1NC(=O)[C@H](CCCN)NC(=O)[C@H](C(C)C)NC(=O)[C@H](Cc2ccc(-c3ccccc3)cc2)NC(=O)[C@H](C(C)C)NC(=O)[C@H](Cc2c[nH]c3ccccc23)NC(=O)[C@H](CC(=O)O)NC(=O)[C@H](Cc2ccc(OCC(=O)O)cc2)NC(=O)[C@H](CN)NC(=O)CSC[C@@H](C(=O)N[C@@H](CCCN)C(=O)NCCCCCCCCCCC(=O)O)NC(=O)[C@H](CCC(N)=O)NC(=O)[C@H](C(C)C)NC(=O)[C@H](CC2CCCCC2)NC(=O)[C@H](Cc2c[nH]cn2)NC1=O [Compound 2794] ({CH2CO}-[Dap]Y(Carboxymethyl)DWV[Bip]V[Orn][dL]H[Cha]VQC[Orn][Aun]-OH; thioether N-14)	28 nM
CC(C)C[C@H]1NC(=O)[C@H](CCCN)NC(=O)[C@H](C(C)C)NC(=O)[C@H](Cc2ccc(-c3ccccc3)cc2)NC(=O)[C@H](C(C)C)NC(=O)[C@H](Cc2c[nH]c3ccccc23)NC(=O)[C@H](CC(=O)O)NC(=O)[C@H](Cc2ccc(OCC(=O)O)cc2)NC(=O)[C@H](CN)NC(=O)CSC[C@@H](C(=O)N[C@@H](CCN)C(=O)NCCCCCCCCCCC(=O)O)NC(=O)[C@@H](CCC(N)=O)NC(=O)[C@H](C(C)C)NC(=O)[C@H](CC2CCCCC2)NC(=O)[C@H](Cc2c[nH]cn2)NC1=O [Compound 2795] ({CH2CO}-[Dap]Y(Carboxymethyl)DWV[Bip]V[Orn][dL]H[Cha]V[dQ]C[Dab][Aun]-OH; thioether N-14)	63.4 nM
CC(C)C[C@H]1NC(=O)[C@H](CCCN)NC(=O)[C@H](C(C)C)NC(=O)[C@H](Cc2ccc(-c3ccccc3)cc2)NC(=O)[C@H](C(C)C)NC(=O)[C@H](Cc2c[nH]c3ccccc23)NC(=O)[C@H](CC(=O)O)NC(=O)[C@H](Cc2ccc(OCC(=O)O)cc2)NC(=O)[C@H](CN)NC(=O)CSC[C@@H](C(=O)N[C@@H](CCCN)C(=O)NCCCCCCCCCCC(=O)O)NC(=O)[C@@H](CCC(N)=O)NC(=O)[C@H](C(C)C)NC(=O)[C@H](CC2CCCCC2)NC(=O)[C@H](Cc2c[nH]cn2)NC1=O [Compound 2796] ({CH2CO}-[Dap]Y(Carboxymethyl)DWV[Bip]V[Orn][dL]H[Cha]V[dQ]C[Orn][Aun]-OH; thioether N-14)	78.5 nM
Cc1cccc(C[C@@H]2NC(=O)[C@H](CC(=O)O)NC(=O)[C@H](Cc3ccc(OCC(=O)O)cc3)NC(=O)[C@H](CCCNC(=N)N)NC(=O)CSC[C@@H](C(=O)N[C@@H](CCN)C(=O)NCCCCCCCCCCC(=O)O)NC(=O)[C@H](CCC(N)=O)NC(=O)[C@H](C(C)C)NC(=O)[C@H](CC3CCCCC3)NC(=O)[C@H](CCN)NC(=O)[C@@H](CC(C)C)NC(=O)[C@H](CCN)NC(=O)[C@H](CCCNC(N)=O)NC(=O)[C@H](Cc3ccc(-c4ccccc4)cc3)NC(=O)[C@H](C(C)C)NC2=O)c1 [Compound 2797] ({CH2CO}-RY(Carboxymethyl)D[Phe(3-Me)]V[Bip][Cit][Dab][dL][Dab][Cha]VQC[Dab][Aun]-OH; thioether N-14)	11.8 nM
